Source: patent US20020032177A1, “Use of D-chiro-inositol in the treatment of conditions associated with hypothalamic gene expression” (Insmed Pharmaceuticals, Inc., priority 2000, published 2002)
Read-outs that look alike come from different tables or passages of the source.

Experiments:
NPY mRNA = NPY mRNA levels in diet-induced obese mice; type: in vivo
Excerpt: (§1) A high calorie diet (compositionally equivalent to the typical American diet) will induce obesity and diabetes in some mouse strains (e.g., C57BL/6J) but not others (e.g., A/J). […] These changes in hypothalamic gene expression are ultimately regulated by insulin, although part of the effect may be mediated indirectly by the effect of insulin on leptin synthesis in fat, which then feeds back to hypothalamus to enhance the direct effect of insulin on the hypothalamus. By enhancing the rate of translation and secretion of leptin this hypothalamic response is blocked or attenuated.
(§2) FIG. 1 and FIG. 2 depicts the results of studies in the diet induced mice on NPY and AGRP mRNA levels. DCI leads to lower NPY and AGRP mRNA.

[1] = Adiposity of mice after DCI administration; type: in vivo; settings: fed and 48-hour fasted
Excerpt: (§3) FIG. 3 and FIG. 4 depict, respectively, the effect of DCI administration on leptin mRNA and plasma leptin in mice. […] Thus, DCI enhances the rate of translation and secretion of leptin.

plasma leptin = assay: Plasma leptin in mice after DCI administration; type: in vivo; settings: FIG. 4
Excerpt: as §3

AGRP mRNA = AGRP mRNA levels in diet-induced obese mice; type: in vivo; settings: FIG. 2
Excerpt: as §1, §2

leptin mRNA [2] = assay: Leptin mRNA in mice after DCI administration; type: in vivo; settings: FIG. 3
Excerpt: as §3

[3] = obese rodents and humans; cited from earlier work
[4] = women with PCOS; cited from earlier work
leptin mRNA [5] = settings: elevation of leptin by injection; cited from earlier work
[6] = lean (wild-type) mice, daily injections; cited from earlier work
[7] = ob/ob mice, daily injections; cited from earlier work

With `OC1C(O)C(O)C(O)C(O)C1O` [DCI, D-chiro-inositol] as the molecule, how does the “NPY mRNA” value (NPY mRNA; diet induced mice, FIG. 1) read?
The value was “lower”.

What about the “effect of fasting on NPY and AGRP mRNA” value (NPY mRNA; fasted state, diet-induced obese mice) of the same molecule?
The value was “blocks or attenuates the effect of fasting”.

What about the adiposity [1] of the same molecule?
Its adiposity is “without increasing adiposity”.

And the “increase of plasma leptin” value (plasma leptin; 48-hour fasted mice)?
The value was “over 5 fold”.

What about the “increase of plasma leptin” value (plasma leptin; fed mice) of the same molecule?
Its value is “over 2 fold”.

What about the “AGRP mRNA” value (AGRP mRNA) of the same molecule?
Its value is “lower”.

And the “leptin mRNA” value (leptin mRNA [2])?
The value was “decrease”.

Which results are given for `CN(C)C(=N)N=C(N)N` [Metformin]?
food intake [3]: decreases; fertility [4]: partially restores

B1: leptin: product of the obese (ob) gene, secreted by adipose cells; given as daily injections of recombinant protein (protein, UniProt P41160 22-167, looked up)
Leptin: VPIQKVQDDTKTLIKTIVTRINDISHTQSVSAKQRVTGLDFIPGLHPILSLSKMDQTLAVYQQVLTSLPSQNVLQIANDLENLRDLLHLLAFSKSCSLPQTSGLQKPESLDGVLEASLYSTEVVALSRLQGSLQDILQQLDVSPEC
With B1 as the molecule, how does the “leptin mRNA” value (leptin mRNA [5]) read?
The value was “pronounced decreases”.

What about the “food intake and body weight” value [6] of the same molecule?
Its value is “modest decreases”.

What about the “body weight and fat” value [7] of the same molecule?
The value was “reduction”.

And the food intake [7]?
Its food intake is “markedly inhibited”.
